Experimental data from patent US20170216360A1, “METHODS AND COMPOSITIONS FOR IMPROVING HOMING OF CELLS INCLUDING MESENCHYMAL STEM CELLS” (SANOFI, priority 2014, published 2017).
“Also recorded” adds a separate entry of the source. Structures can show the parent of a compound that is named as a salt. Where two headings read alike, the source gives them in different places.

Assays:
[1] = system: CD11a surface expression on huMSCs; assay: Medium throughput screen: CD11a surface expression on MSCs, PE-CY5 anti-CD11a antibody, laser-scanning fluorescence microplate cytometer; type: cell-based, human; design: key to Cell surface ligand CD11a (induction of expression): NA = negative activity result; A = positive activity result; conditions: pretreatment of huMSCs; for EC50: read-out: Cell Surface Marker ED 50 (M) Molar Concentration of Compound for CD11a Expression
Protocol: An in vitro screen was performed for compounds that induce surface expression on huMSCs of the marker CD11a (LFA-1). This screen may be considered a medium throughput screen. Certain compounds that induce the increase of this surface marker were then selected for testing in an in vitro firm adhesion assay and/or in vivo systemic administration in an animal model of inflammation. The surface expression screen involved fluorophore-conjugated antibodies to the respective markers. Following pretreatment with the test compounds, samples of cells were incubated with the labeled antibodies for detection of surface marker expression and change relative to a reference level of untreated cells or negative control samples or values. Cells were pretreated with a concentration (3 μM) of each small molecule compound for 24 hours, followed by incubation with a fluorophore-conjugated anti-marker antibody to detect expression on MSC surface. Surface expression levels of marker ligands were then evaluated by laser-scanning fluorescence microplate cytometer. […] Cell viability in response to compounds was also tested to assess whether molecules have toxicity after 24 hours of pretreatment. Testing was performed on two different huMSC sources representing cells from different donors.
Further details of the screening approach are provided as follows. A unique single batch of bone marrow-derived MSC cells was prepared for the entire screening campaign by cell amplification using CellStack flasks and freezing in separate vials at passage P5. […] For each run, vials were thawed and cells directly seeded on 384-well plates at 3,000 cells per well in MSCGM medium. Following an overnight incubation, cells were treated with the indicated concentrations of compounds for 24 hours. Cells were washed in PBS, 3% BSA and incubated for one hour with PE-CY5-conjugated anti-CD11a monoclonal antibody (clone HI111). Expression of CD11a at the cell surface was detected using the Acumen Explorer, a laser-scanning fluorescence microplate cytometer after two PBS washings. HL-60 cells seeded at 10,000 cells per well and treated with 100 nM phorbol 12-myristate 13-acetate (PMA) for 24 h to induce cell adhesion were used as a positive control in each 384-well plate. Positive compounds were counter-screened for their auto-fluorescence by measuring the signal in the absence of antibody.
A single batch of bone marrow-derived MSC was prepared for the entire screening campaign by cell amplification using CellStack flasks and freezing in separate vials at passage P5. […] For each run, vials were thawed and cells directly seeded on 384-well plates at 3,000 cells per well in MSCGM medium. Following an overnight incubation, cells were pretreated with a low (0.1 μM) and high (3 μM) concentration of the compounds for 24 h. 9,000 cpds were tested in 112 assay plates, each 384-well plate contained 320 cpds (from column 5 to 24), one column for Max (Column2, HL60 cells) and one column for Min (Column4, MSC cells). Cells were washed in PBS, 3% BSA and incubated for one hour with PE-CY5-conjugated anti-CD11a monoclonal Ab (BD Biosciences). Expression of CD11a at the cell surface was detected after two PBS washes using the Acumen Explorer equipment, a laser-scanning fluorescence microplate cytometer. HL-60 cells (seeded at 10,000 cells per well and treated with 100 nM phorbol 12-myristate 13-acetate (PMA) for 24 h to induce cell adhesion) were used as a positive control in each 384-well plate. Positive compounds were counter-screened for their auto-fluorescence by measuring the signal in the absence of Ab. Shown in FIG. 4 is the global screening data. Using the Max, Min columns, we have calculated Max/Min ratio generated with CD11a Ab for each assay plate (signal/background ration in green columns was calculated for each of the 112 assay plates). […]

[2] = system: CD11a surface expression on MSCs; assay: Flow cytometry of CD11a surface expression on MSCs (FITC-CD11a Ab); type: cell-based, human; conditions: 3 μM for 24 h
Protocol: MSCs were pretreated with DMSO vehicle control (DMSO-MSC, 0.1%) or ruboxistaurin (Rub-MSC, 3 μM) for 24 h and CD11a expression levels were assessed via flow cytometry (cells were stained with either FITC-CD11a Ab or isotype control, representative data from n=3 independent experiments).

[3] = system: human mesenchymal stem cells; assay: In vitro functional firm adhesion assay of cells (Table 3, coating not stated); type: cell-based; design: key to Result, in vitro Firm Adhesion: NA = negative activity result; A = positive activity result; conditions: for Firm adhesion, Percent increase: relative to untreated and/or negative control MSCs; for Result, in vitro Firm Adhesion: pretreated huMSCs
Protocol: (§1) Cell adhesion experiments were performed using Bioflux1000 (FluxionBio), allowing accurate control over shear flow. A special 48-well plate was used, in which a microfluidic channel (350 μm×70 μm) connects each pair of adjacent wells (termed inlet and outlet wells). The plate was placed under vacuum and the channels were coated from the inlet with recombinant human E-selectin (5 μg/mL) or ICAM-1 (5 μg/mL) and incubated at 37° C. for 1 h. Prior to introducing the cells into the channel, a wash with PBS−/− from the outlet well was performed for 5 min. Compound-pretreated MSCs were introduced into the channel, followed by attachment period of 2 minutes (no flow applied during the attachment period). Attached cells were then subjected to increasing shear flow, ranging from 0.25 dynes/cm^2 for up to 10 dynes/cm^2. Images were acquired using the Montage software and cell adhesion to the coated channels following subjection to shear flow was examined. See also disclosure elsewhere herein.
1. Obtain preferred channel coating (protein/cell monolayer). 2. Prepare cell suspension (same concentrations detailed above for different cell types). 3. Add 50 μl of cell suspension to outlet well. 4. Introduce cells into channel by applying shear force of 2 dynes/cm^2 (cells should be observed within 10-15 sec flowing from outlet to inlet). 5. Once cells are observed in the channel, stop the flow and allow the introduced cells to sit for different time periods ranging from 30 seconds to 5 minutes. 6. Following this settling period, apply shear force starting from 0.5 dynes/cm^2 up to 10 dynes/cm^2 and acquire videos using stream acquisition. 7. Cell quantification is then performed using the Montage software—percentage of cells adhered, rolled or washed away after applying shear flow should be quantified.

[4] = system: MSC firm adhesion to ICAM-1-coated surface; assay: ICAM-1 firm adhesion assay under shear flow, with antibody blocking; type: cell-based, human; conditions: 3 μM for 24 h
Protocol: as §1
Pre-confluent MSCs were incubated for 24 hours with the indicated small molecules (3 μM). MSCs were than detached, washed and incubated for 30 minutes with an antibody reagent. The following antibodies are used: anti-human CD11a (clone: HI111), anti-human CD90 (clone: MAB2067), mouse anti-human CD11a (clone: TS1/22), and mouse IgG1 isotype control. Cells were then introduced into the channel and given 2 minutes to adhere before being subjected to increasing shear flow for a firm adhesion assay on a microfluidic channel coated with E-selectin or ICAM-1.

[5] = system: LPS-induced inflamed mouse ear; assay: In vivo MSC homing to LPS-induced inflamed ear after systemic infusion, intravital microscopy; design: key to In vivo functional assay (homing): NA = negative activity result; A = positive activity result; conditions: for Increase of MSC homing to inflamed ear (%): relative to untreated cells
Protocol: C57BL/6 mice (Charles River Laboratories, Wilmington, Mass.) were anesthetized with ketamine/xylazine and their ears shaved 24 h prior to cell infusion. To induce an inflammatory response, 30 μg of E. coli lipopolysaccharide (LPS, Sigma, St. Louis, Mo.) in 50 μL saline was injected into the pinna of the left ear, with 50 μL 0.9% saline injected into the right ear as a control. For in vivo dye sensitivity validation, 1×10e6 cells of each stain were suspended in 150 μL PBS (pH 7.4) and injected by retro-orbital vein infusion.
To evaluate the minimum number of cells needed for a reproducible response, each mouse (n=4) received a range of cell doses (10,000, 50,000, 100,000, or 500,000) each of cells stained with Dil or DiD with a dye switch (i.e., dyes used for experimental and control cells were alternated to prevent bias based on the dyes that were used). To evaluate the impact of small molecule hit pre-treatment on MSC homing to the inflamed ear, MSCs were incubated with 3 μM of the small molecule hit or 0.1% DMSO as a control for 24 h before staining and in vivo administration. To highlight the vasculature, 50 μL of 10 mg/mL FITC-dextran ([…]; Sigma, St. Louis, Mo.) was injected retro-orbitally prior to imaging.
In vitro staining and in vivo homing of stained MSCs to the skin was imaged noninvasively in real time using a custom-built video-rate laser-scanning confocal microscope designed specifically for live animal imaging. For in vivo imaging, the mouse ear was positioned under a coverslip with methylcellulose gel and images acquired at 30 frames per second at a depth up to 200 μm using a 60×1.0NA water immersion objective lens (Olympus, Center Valley, Pa.). DiO labeled MSCs were excited with a 491 nm continuous wave (CW) laser (Cobalt, Stockholm, Sweden), and detected through a 520±20 nm bandpass filter (Semrock, Inc., Rochester, N.Y.). Dil labeled MSCs were excited with a 561 nm CW laser (Coherent, Inc., Santa Clara, Calif.) and detected through a 593 nm±40 nm filter (Omega Optical, Brattleboro, Vt.). DiD labeled MSCs were excited with a 635 nm CW laser (Coherent, Inc., Santa Clara, Calif.) and detected through a 695 nm±27.5 nm band pass filter (Omega Optical, Brattleboro, Vt.). DiR labeled MSCs were excited using a femtosecond Ti:Sapphire Maitai source for single photon excitation at 750 nm (Spectra Physics, Santa Clara, Calif.) and collected through a 785 nm±31 nm band pass filter (Omega Optical, Brattleboro, Vt.).
For quantification, the average number of cells in 20 representative imaging locations across the inflamed region was counted in each mouse. Cells were defined as having a diameter from 10-30 μm to eliminate debris and clumps from analysis, and a primary channel intensity greater than 2 to eliminate autofluorescent events. The average relative detection sensitivity (ratio of Dil/DiD counts) determined in the overall dye efficiency experiments were used to scale the counts for DiD stained cells. […] For multiple comparisons, Tukey's HSD test was used. Error bars in graphs represent standard error, and statistical significance is denoted by * p<0.05.

EC50 ([1]; Homo sapiens)	SMILES	Cell surface ligand CD11a (induction of expression) [1]	Firm adhesion, Percent increase [3]	further results
1.68e-05 M	CN1C(=O)C(c2c[nH]c3ccccc23)=C(c2cn(C)c3ccccc23)C1=O [Compound 1905, 3-(1H-indol-3-yl)-1-methyl-4-(1-methyl-1H-indol-3-yl)-pyrrole-2,5-dione]	–	–	–
3.19e-06 M	Cn1cc(C2=C(c3cn(C4CCN(Cc5ccccn5)CC4)c4ccccc34)C(=O)NC2=O)c2ccccc21 [Compound 1906, 3-(1-methyl-1H-indol-3-yl)-4-[1-(1-pyridin-2-ylmethyl-piperidin-4-yl)-1H-indol-3-yl]-pyrrole-2,5-dione, reference compound]	–	–	–
1.75e-05 M	O=C1C(c2c[nH]c3ccccc23)=C(c2c[nH]c3ccccc23)C(=O)N1Cc1ccccc1 [Compound 1921, 1-benzyl-3,4-bis-(1H-indol-3-yl)-pyrrole-2,5-dione]	A	–	–

The remaining lines, values behind:

SMILES	EC50 ([1]; Homo sapiens)	Cell surface ligand CD11a (induction of expression) [1]	Firm adhesion, Percent increase [3]	further results
CN(C)CCCn1cc(C2=C(c3c[nH]c4ccccc34)C(=O)NC2=O)c2ccccc21 [Compound 1934, 3-[1-(3-dimethylamino-propyl)-1H-indol-3-yl]-4-(1H-indol-3-yl)-pyrrole-2,5-dione]	–	A	–	–
CN(C)C[C@@H]1CCn2cc(c3ccccc32)C2=C(C(=O)NC2=O)c2cn(c3ccccc23)CCO1 [Ruboxistaurin, ruboxistaurin, reference compound]	> 3e-05 M	–	0% (negative response)	CD11a surface expression on MSCs [2]: did not increase; also recorded: does not upregulate; MSC firm adhesion to ICAM-1-coated substrates, result in words [4]: did not improve
Cn1cc(C2=C(c3c4n(c5ccccc35)CCC(CN)C4)C(=O)NC2=O)c2ccccc21 (stereo not shown) [Compound 1919, 3-(8-aminomethyl-6,7,8,9-tetrahydro-pyrido[1,2-a]indol-10-yl)-4-(1-methyl-1H-indol-3-yl)-pyrrole-2,5-dione]	–	A	81%	Increase of MSC homing to inflamed ear (%) [5]: 45%; In vivo functional assay (homing) ([5]; systemic administration of pretreated huMSCs): A; Result, in vitro Firm Adhesion [3]: A; EC50 [1]: 2.75e-06 M
CN(C)CC1CCn2c(c(C3=C(c4cn(C)c5ccccc45)C(=O)NC3=O)c3ccccc32)C1 (stereo not shown) [Compound 1933, 3-(8-dimethylaminomethyl-6,7,8,9-tetrahydro-pyrido[1,2-a]indol-10-yl)-4-(1-methyl-1H-indol-3-yl)-pyrrole-2,5-dione hydrochloride]	2.49e-05 M	A	75%	Increase of MSC homing to inflamed ear (%) [5]: <10%; Result, in vitro Firm Adhesion [3]: A
Cn1cc(C2=C(c3cn(C)c4ccccc34)C(=O)NC2=O)c2ccccc21 [Compound 1912, 3,4-bis-(1-methyl-1H-indol-3-yl)-pyrrole-2,5-dione]	–	A	–	–
CN1CCCC1CCn1cc(C2=C(c3c[nH]c4ccccc34)C(=O)NC2=O)c2ccccc21 (stereo not shown) [Compound 1928, 3-(1H-indol-3-yl)-4-{1-[2-(1-methyl-pyrrolidin-2-yl)-ethyl]-1H-indol-3-yl}-pyrrole-2,5-dione]	–	A	–	–
